Assay results from patent publication US10434083B2, “Transmammary delivery of cyclooxygenase-2 inhibitors for analgesia in neonates” (Iowa State University Research Foundation, Inc., priority 2018, dated 2019).

Assay: in vivo
Set-up: species or system swine
Settings: for AUMC / AUMClast / AUCINF / AUC_Exp / AUC∞ extrpl / Lamda_HL / Lamda_Z / λZ / T1/2λZ: both; for Lamda_HL / Lamda_Z / λZ / T1/2λZ: swine
Protocol: Blood samples for firocoxib determination were collected from the sows and three piglets/litter (two male and one female piglet at each time point) at 0, 2, 4, 6, 8, 12, 24, 48, 72, 96, and 120 h post-drug injection to the sow. The blood sample from each sow (8 mL/sample) was collected via the left or right jugular vein using a 25.4-mm, 16-gauge hypodermic needle (Air-Tite Products, Virginia Beach, Va.) attached to a 12-mL Luer-Lok syringe (TycoHealth Care, Mansfield, Mass.). During blood collection, a pig snare was used for manual restraint of each sow in her crate. The blood samples (2 mL/sample) from the piglets were collected from the left or right cranial vena cava using a 3.8-cm, 20-gauge hypodermic needle (TycoHealth Care, Mansfield, Mass.) attached to a 3-mL syringe (TycoHealth Care, Mansfield, Mass.). Physical restraint of the piglet was achieved by placing the animal in a supine position during sample collection. Blood samples were transferred to 6-mL evacuated tubes that contained lithium heparin (Vacuette plasma tubes, Greiner Bio-One, Monroe, N.C.) that were stored on ice for up to 2 h before processing. The blood samples were centrifuged for 10 min at 1,500×g. The plasma was then removed, placed in cryovials, and frozen at −80° C. until analysis.
On Day 0, the pharmacokinetic portion of the study commenced. The test article was administered intramuscularly in the right neck to sows. Blood samples for Firocoxib determination were collected by jugular venipuncture from sows and 3 piglets/litter (2 male and one female at each timepoint) at 0, 2, 4, 6, 8, 12, 24, 48, 72, 96 and 120 hours after drug injection in the sow.
Plasma concentrations of firocoxib were determined using high-pressure liquid chromatography (Agilent 1100 Pump, Column Compartment and Autosampler, Agilent Technologies, Santa Clara, Calif., USA) with mass spectrometry detection (LTQ Ion Trap, Thermo Scientific, San Jose, Calif., USA). Briefly, frozen samples or standards were thawed at room temperature and rigorously vortexed once completely thawed. […] Plasma samples, plasma spikes, plasma quality control samples, and blanks (100 μL) were then protein-precipitated in 1.5-mL microcentrifuge tubes with 400 μL acetonitrile/0.1% formic acid. A d6-firocoxib internal standard was incorporated into the acetonitrile precipitating agent at a concentration of 200 ng/mL. The samples were vortexed for 5 seconds after addition of the acetonitrile and centrifuged for 20 min at 3,773×g to sediment the protein pellet. Following centrifugation, the supernatant was poured into cell culture tubes and evaporated to dryness in a Turbovap concentration evaporator at 48° C. The tube contents were reconstituted with 150 μL 25% acetonitrile and transferred to autosampler vials equipped with 300-μL glass inserts. The samples were centrifuged at 770×g before liquid chromatography-mass spectroscopy (LC-MS) analysis.
Twelve calibration spikes were prepared in blank porcine plasma in the concentration range of 1-5,000 ng/mL for the samples from the sows. The samples from the piglets were analyzed using a narrower range of calibration spikes of 1-500 ng/mL. A linear (1/X) fit was used for the piglet plasma samples and the narrower 1-500 ng/mL concentration range. A quadratic (1/X) fit was used for the sow plasma samples and the 1-5,000 ng/mL concentration range.
Plasma and tissue firocoxib concentrations were determined using high-pressure liquid chromatography (Agilent 1100 Pump, Column Compartment and Autosampler, Agilent Technologies, Santa Clara, Calif.) with mass spectrometry detection (LTQ Ion Trap, Thermo Scientific, San Jose, Calif.). A 25-μL injection volume was used for the LC-MS analysis. The mobile phases were A (0.1% formic acid in water) and B (0.1% formic acid in acetonitrile), at flow rates of 0.275 mL/min. […]

CC1(C)OC(=O)C(OCC2CC2)=C1c1ccc(S(C)(=O)=O)cc1 [firocoxib]
AUC(0-inf) (both sexes, pig, 0.5 mg/kg): 690 ng·h/mL | AUC(0-t) (both sexes, pig, 0.5 mg/kg, Piglet AUClast): 635 ng·h/mL | AUC(0-inf) (both sexes, pig, 1 mg/kg): 3180 ng·h/mL | AUC(0-t) (both sexes, pig, 1 mg/kg, Piglet AUClast): 2470 ng·h/mL | AUC(0-inf) (both sexes, pig, 1.5 mg/kg): 4620 ng·h/mL | AUC(0-t) (both sexes, pig, 1.5 mg/kg, Piglet AUClast): 3900 ng·h/mL | AUC(0-inf) (both sexes, pig, 2 mg/kg): 3650 ng·h/mL | AUC(0-t) (both sexes, pig, 2 mg/kg, Piglet AUClast): 3220 ng·h/mL | half-life (both sexes, pig, im): 30.9 to 48.7 h | AUC(0-inf) (both sexes, pig, im, 0.5 mg/kg): 690 ng·h/mL | Cmax (both sexes, pig, im, 0.5 mg/kg): 9.53 ng/mL | Tmax (both sexes, pig, im, 0.5 mg/kg): 24 h | AUC(0-t) (both sexes, pig, im, 0.5 mg/kg, AUC 0-24 h): 176 ng·h/mL | AUC(0-t) (both sexes, pig, im, 0.5 mg/kg, AUC0-24h): 176 ng·h/mL | AUC(0-t) (both sexes, pig, im, 0.5 mg/kg, AUC0-last): 635 ng·h/mL | AUC(0-t) (both sexes, pig, im, 0.5 mg/kg, AUClast): 635 ng·h/mL | MRT last (both sexes, pig, im, 0.5 mg/kg, MRT0-last): 44.8 h | MRT last (both sexes, pig, im, 0.5 mg/kg, MRT last): 44.8 h | AUC(0-inf) (both sexes, pig, im, 1 mg/kg): 3180 ng·h/mL | Cmax (both sexes, pig, im, 1 mg/kg): 31 ng/mL | Tmax (both sexes, pig, im, 1 mg/kg): 24 h | AUC(0-t) (both sexes, pig, im, 1 mg/kg, AUC 0-24 h): 407 ng·h/mL | AUC(0-t) (both sexes, pig, im, 1 mg/kg, AUC0-24h): 407 ng·h/mL | AUC(0-t) (both sexes, pig, im, 1 mg/kg, AUC0-last): 2470 ng·h/mL | AUC(0-t) (both sexes, pig, im, 1 mg/kg, AUClast): 2470 ng·h/mL | MRT last (both sexes, pig, im, 1 mg/kg, MRT0-last): 55.4 h | MRT last (both sexes, pig, im, 1 mg/kg, MRT last): 55.4 h | AUC(0-inf) (both sexes, pig, im, 1.5 mg/kg): 4620 ng·h/mL | Cmax (both sexes, pig, im, 1.5 mg/kg): 53.3 ng/mL | Tmax (both sexes, pig, im, 1.5 mg/kg): 24 h | AUC(0-t) (both sexes, pig, im, 1.5 mg/kg, AUC 0-24 h): 662 ng·h/mL | AUC(0-t) (both sexes, pig, im, 1.5 mg/kg, AUC0-24h): 662 ng·h/mL | AUC(0-t) (both sexes, pig, im, 1.5 mg/kg, AUC0-last): 3900 ng·h/mL | AUC(0-t) (both sexes, pig, im, 1.5 mg/kg, AUClast): 3900 ng·h/mL | MRT last (both sexes, pig, im, 1.5 mg/kg, MRT0-last): 54.4 h | MRT last (both sexes, pig, im, 1.5 mg/kg, MRT last): 52.4 h | AUC(0-inf) (both sexes, pig, im, 2 mg/kg): 3650 ng·h/mL | Cmax (both sexes, pig, im, 2 mg/kg): 44 ng/mL | Tmax (both sexes, pig, im, 2 mg/kg): 24 h | AUC(0-t) (both sexes, pig, im, 2 mg/kg, AUC 0-24 h): 609 ng·h/mL | AUC(0-t) (both sexes, pig, im, 2 mg/kg, AUC0-24h): 609 ng·h/mL | AUC(0-t) (both sexes, pig, im, 2 mg/kg, AUC0-last): 3220 ng·h/mL | AUC(0-t) (both sexes, pig, im, 2 mg/kg, AUClast): 3220 ng·h/mL | MRT last (both sexes, pig, im, 2 mg/kg, MRT0-last): 51.5 h | MRT last (both sexes, pig, im, 2 mg/kg, MRT last): 51.5 h | AUMC (pig, 0.5 mg/kg): 28433.00 h^2 × ng/mL | AUMClast (pig, 0.5 mg/kg): 28,443.00 h * h * ng/mL | AUMC (pig, 1 mg/kg): 136805.00 h^2 × ng/mL | AUMClast (pig, 1 mg/kg): 136,805.00 h * h * ng/mL | AUMC (pig, 1.5 mg/kg): 204246.00 h^2 × ng/mL | AUMClast (pig, 1.5 mg/kg): 204,246.00 h * h * ng/mL | AUMC (pig, 2 mg/kg): 166016.00 h^2 × ng/mL | AUMClast (pig, 2 mg/kg): 166,016.00 h * h * ng/mL | AUCINF (pig, im, 0.5 mg/kg): 690.47 ng·h/mL | AUC_Exp (pig, im, 0.5 mg/kg): 0.08% | AUC∞ extrpl (pig, im, 0.5 mg/kg): 0.08% | AUCINF (pig, im, 1 mg/kg): 3178.00 ng·h/mL | AUC_Exp (pig, im, 1 mg/kg): 0.22% | AUC∞ extrpl (pig, im, 1 mg/kg): 0.22% | AUCINF (pig, im, 1.5 mg/kg): 4615.17 ng·h/mL | AUC_Exp (pig, im, 1.5 mg/kg): 0.16% | AUC∞ extrpl (pig, im, 1.5 mg/kg): 0.16% | AUCINF (pig, im, 2 mg/kg): 3652.32 ng·h/mL | AUC_Exp (pig, im, 2 mg/kg): 0.12% | AUC∞ extrpl (pig, im, 2 mg/kg): 0.12% | Lamda_HL (0.5 mg/kg): 30.86 h | Lamda_Z (0.5 mg/kg): 0.02 h⁻¹ | λZ (0.5 mg/kg): 0.02 h⁻¹ | Lamda_HL (1 mg/kg): 48.71 h | Lamda_Z (1 mg/kg): 0.01 h⁻¹ | λZ (1 mg/kg): 0.01 h⁻¹ | Lamda_HL (1.5 mg/kg): 37.91 h | Lamda_Z (1.5 mg/kg): 0.02 h⁻¹ | λZ (1.5 mg/kg): 0.05 h⁻¹ | Lamda_HL (2 mg/kg): 32.42 h | Lamda_Z (2 mg/kg): 0.02 h⁻¹ | λZ (2 mg/kg): 0.02 h⁻¹ | T1/2λZ (im, 0.5 mg/kg): 30.86 h | T1/2λZ (im, 1 mg/kg): 48.71 h | T1/2λZ (im, 1.5 mg/kg): 37.91 h | T1/2λZ (im, 2 mg/kg): 32.42 h
